Source: patent US20100298252A1, “METHODS AND COMPOSITIONS FOR OPHTHALMIC TREATMENT OF FUNGAL AND BACTERIAL INFECTIONS” (priority 2004, published 2010)

Tests used:
Type in all cases: cell-based
Enterococcus faecalis [1] = test: MIC and FIC index, microtiter checkerboard / broth dilution; conditions: Ent. faecalis; for MIC Individually Administered, antibiotic: antibiotic alone
Procedure: (§1) Agents and Chem. 210-217. (1967) and Sparks et al., Vet. Res. Comm. 18, 241-249 (1994), incorporated herein by reference in their entireties. […] Then 0.05 ml of an 18-hour old culture of a test organism, containing 10^6 colony-forming units (CFU)/ml, was added to each well. Controls for the culture and media were included in each plate. Plates were covered and incubated at 37° Celsius for 18-24 hours. […] To generate isobolograms, FICs of the two test solutions were plotted individually on the x-axis and y-axis to determine the effect of combining the two test solutions on bacterial growth. A line that curves away from, the zero point and the coordinates indicates antagonism. […] A numerical score or fractional inhibitory concentration (FIC) index was determined. The FIC index is equal to the sum of the values of FIC for the individual drugs: […] Am. Soc. Microbiol. Williams and Wilkins, Baltimore 1970), incorporated herein by reference in its entirety. […] Ps. aeruginosa, and Ent. faecalis.

Pseudomonas aeruginosa [2] = test: as above; conditions: Ps. aeruginosa; for MIC Individually Administered, antibiotic: antibiotic alone
Procedure: as §1

Staphylococcus aureus [3] = test: as above; conditions: Staph. aureus; for MIC Individually Administered, antibiotic: antibiotic alone
Procedure: as §1

Enterococcus faecalis [4] = test: Antibiotic resistance profile by disc diffusion; set-up: key: R = resistant; I = intermediate; S = sensitive; conditions: disc diffusion on MHA
Procedure: (§2) The organisms of this study were isolated from human burn patients. They included strains of methicillin resistant Staphylococcus aureus, and vancomycin resistant strains of Pseudomonas aeruginosa and Enterococcus faecalis. The bacterial isolates were propagated in or on Brain Heart Infusion broth (BHI), Mueller-Hinton Broth (MHB), blood agar (BA), Mueller-Hinton agar (MHA), enterococcus agar (EA), or 2× nutrient agar (2×NA).
(§3) Antibiotic resistance profiles were determined by the disc diffusion method on MHA (5).

Pseudomonas aeruginosa [5] = test: Antibiotic resistance profile by disc diffusion; set-up: key: R = resistant; I = intermediate; S = sensitive; conditions: disc diffusion on MHA
Procedure: as §2, §3

Staphylococcus aureus [6] = test: Antibiotic resistance profile by disc diffusion; set-up: key: R = resistant; I = intermediate; S = sensitive; conditions: disc diffusion on MHA
Procedure: as §2, §3

Row | MIC Individually Administered, antibiotic (Enterococcus faecalis [1]) [mg/mL] | MIC Individually Administered, antibiotic (Pseudomonas aeruginosa [2]) [mg/mL] | MIC Individually Administered, antibiotic (Staphylococcus aureus [3]) [mg/mL] | MIC Individually Administered, EDTA (Enterococcus faecalis [1]; EDTA alone in 50 mM Tris) [mM] | MIC Individually Administered, EDTA (Pseudomonas aeruginosa [2]; EDTA alone in 50 mM Tris) [mM] | MIC Individually Administered, EDTA (Staphylococcus aureus [3]; EDTA alone in 50 mM Tris) [mM] | Structure (SMILES) | Antibiotic resistance profile (Enterococcus faecalis [4]) | Antibiotic resistance profile (Pseudomonas aeruginosa [5]) | Antibiotic resistance profile (Staphylococcus aureus [6])
1 | 2.0 | 0.001 | 0.12 |  |  |  | NCC[C@H](O)C(=O)N[C@@H]1C[C@H](N)[C@@H](O[C@H]2O[C@H](CN)[C@@H](O)[C@H](O)[C@H]2O)[C@H](O)[C@H]1O[C@H]1O[C@H](CO)[C@@H](O)[C@H](N)[C@H]1O [Amikacin, amikacin] |  |  | 
2 | 0.001 | 0.49 | 0.24 |  |  |  | CC1(C)S[C@@H]2[C@H](NC(=O)[C@H](N)c3ccccc3)C(=O)N2[C@H]1C(=O)O [Ampicillin, ampicillin] | S | R | R^B
3 | 0.4 | 12.5 | 0.39 |  |  |  | O=C(N[C@H](CO)[C@H](O)c1ccc([N+](=O)[O-])cc1)C(Cl)Cl [Chloramphenicol, chloramphenicol] | R | R | I
4 |  |  |  | 15.63 | 1.25 | 1.0 | O=C(O)CN(CCN(CC(=O)O)CC(=O)O)CC(=O)O [EDTA, ethylenediamenetetracetic acid] |  |  | 
5 |  |  |  |  |  |  | Cc1noc(NS(=O)(=O)c2ccc(N)cc2)c1C [G, sulfisoxazole] | R | R | S
6 |  |  |  |  |  |  | NC[C@H]1O[C@H](O[C@H]2[C@H](O)[C@@H](O[C@H]3O[C@H](CO)[C@@H](O)[C@H](N)[C@H]3O)[C@H](N)C[C@@H]2N)[C@H](O)[C@@H](O)[C@@H]1O [K, kanamycin] | R | R | R
